In US8067036B2, “Gnetum extract” (Hosoda SHC Inc., priority 2004, dated 2011):

Assays:
[1] = DPPH radical scavenging (antioxidative action) test; assay type: biochemical; settings: rank order among Gnetin C, Gnemonocide A, D
Method: After 6 hours, decreases of absorbance (absorbance difference) at 517 nm of these reaction solutions were measured.

[2] = tested on: hay bacillus, Escherichia coli, sake yeast, penicillium; experiment: Antimicrobial action/effect (overall statement); assay type: cell-based; settings: rank order among Gnetin C, Gnemonocide A, D

Substance: Gnemonocide A
- order of scavenging radical action (antioxidative effect) to DPPH [1]: Gnetin C>Gnemonocide C≈Gnemonocide D>Gnemonocide A
- order of antimicrobial action of the identified ingredients [2]: does not show the antimicrobial action

Substance: Gnemonocide C
- order of scavenging radical action (antioxidative effect) to DPPH [1]: Gnetin C>Gnemonocide C≈Gnemonocide D>Gnemonocide A
- order of antimicrobial action of the identified ingredients [2]: Gnetin C>Gnemonocide C≈Gnemonocide D

Substance: Gnemonocide D
- order of scavenging radical action (antioxidative effect) to DPPH [1]: Gnetin C>Gnemonocide C≈Gnemonocide D>Gnemonocide A
- order of antimicrobial action of the identified ingredients [2]: Gnetin C>Gnemonocide C≈Gnemonocide D
